Target: c-Myc template DNA (c-myc quadruplex)
Experiment: Quadruplex binding / stop assay (Taq polymerase arrest, capillary electrophoresis)
Conditions: read-out: S DATA; Table 1D, stop assay data

SMILES | IC50
CN(C)CC(C)(C)CNC(=O)c1cn2c3c(c(N4CCC(NC(=O)OC(C)(C)C)C4)c(F)cc3c1=O)Oc1ccccc1-2 (stereo not shown) [compound 1590] | > 15 µM
CN1CCCC1CCNC(=O)c1cn2c3c(c(NCCCNC(=O)OC(C)(C)C)c(F)cc3c1=O)Oc1cc3ccccc3cc1-2 (stereo not shown) [compound 1689] | 1.75 µM
CCCCN1CCC(CNc2c(F)cc3c(=O)c(C(=O)NCCC4CCCN4C)cn4c3c2Oc2cc3ccccc3cc2-4)CC1 (stereo not shown) [compound 1691] | 1 µM
CN1CCCC1CCNC(=O)c1cn2c3c(c(N4CCC(N5CCCCC5)CC4)c(F)cc3c1=O)Oc1cc3ccccc3cc1-2 (stereo not shown) [compound 1483] | 1.75 µM
CN1CCCC1CCNC(=O)c1cn2c3c(c(NCCCNC(=O)OC(C)(C)C)c(F)cc3c1=O)Oc1cc(Cl)ccc1-2 (stereo not shown) [compound 1808] | > 15 µM
NC1CCN(C(=O)c2cn3c4c(c(N5CC6CCCNC6C5)c(F)cc4c2=O)Oc2cc4ccccc4cc2-3)C1 (stereo not shown) [compound 1638] | 1.75 µM
CC(C)N1CCN(c2c(F)cc3c(=O)c(C(=O)NC4CC(C)(C)NC(C)(C)C4)cn4c3c2Oc2ccccc2-4)CC1 [compound 1571] | > 15 µM
CN1CCCC1CCNC(=O)c1cn2c3c(c(N(C)C4CCNC4)c(F)cc3c1=O)Oc1cc3ccccc3cc1-2 (stereo not shown) [compound 1502] | 0.75 µM
COc1ccc(CCNc2c(F)cc3c(=O)c(C(=O)N(C)CCc4ccccn4)cn4c3c2Oc2cc3ccccc3cc2-4)cc1OC [compound 1759] | 10 µM
CN1CCN(CCCNc2c(F)cc3c(=O)c(C(=O)NCCN4CCOCC4)cn4c3c2Oc2ccccc2-4)CC1 [compound 1573] | > 15 µM
CN1CCCC1CCNC(=O)c1cn2c3c(c(NCc4ccco4)c(F)cc3c1=O)Oc1cc3ccccc3cc1-2 (stereo not shown) [compound 1755] | 4.2 µM
CN1CCC[C@H]1CCNC(=O)c1cn2c3c(c(SCCc4cnccn4)c(F)cc3c1=O)Oc1cc3ccccc3cc1-2 [compound 1770] | 4.7 µM
CN1CCN(CCCNC(=O)c2cn3c4c(c(N5CC6CCCNC6C5)c(F)cc4c2=O)Oc2cc4ccccc4cc2-3)CC1 (stereo not shown) [compound 1641] | 0.75 µM
COc1cccc(CCNC(=O)c2cn3c4c(c(N5CCC(N)C5)c(F)cc4c2=O)Oc2cc4ccccc4cc2-3)c1OC (stereo not shown) [compound 1702] | > 15 µM

Further lines, results first:

IC50 | SMILES
0.75 µM | CN1CCCC1CCNC(=O)c1cn2c3c(c(NCCC4CCCN4C)ccc3c1=O)Oc1cc3ccccc3cc1-2 (stereo not shown) [compound 1523]
5.7 µM | CN1CCC[C@H]1CCNC(=O)c1cn2c3c(c(N4CCC(c5cnccn5)C4)c(F)cc3c1=O)Oc1ccccc1-2 (stereo partly shown) [compound 1762]
1.75 µM | CN1CCCC1CCNC(=O)c1cn2c3c(c(N4CCC(NC(=O)OC(C)(C)C)CC4)c(F)cc3c1=O)Oc1cc3ccccc3cc1-2 (stereo not shown) [compound 1498]
1 µM | CCN(CC)CCCC(C)NC(=O)c1cn2c3c(c(N4CCC(c5cnccn5)C4)ccc3c1=O)Oc1cc3ccccc3cc1-2 (stereo not shown) [compound 1720]
1.75 µM | CN1CCCC1CCNc1ccc2c(=O)c(C(=O)NCCCN3CCOCC3)cn3c2c1Oc1cc2ccccc2cc1-3 (stereo not shown) [compound 1524]
1 µM | N=C(N)NCCCCNC(=O)c1cn2c3c(c(NCCN4CCCC4)c(F)cc3c1=O)Oc1cc3ccccc3cc1-2 [compound 1655]
1.75 µM | CN1CCCC1CCNC(=O)c1cn2c3c(c(NCCCN4CCOCC4)ccc3c1=O)Oc1cc3ccccc3cc1-2 (stereo not shown) [compound 1529]
> 15 µM | CC(=O)N1CCN(c2c(F)cc3c(=O)c(C(=O)NCCC4CCCN4C)cn4c3c2Oc2cc(Cl)ccc2-4)CC1 (stereo not shown) [compound 1807]
5.5 µM | CN1CCCC1CCNC(=O)c1cn2c3c(c(SCCc4ccccn4)c(F)cc3c1=O)Oc1cc3ccccc3cc1-2 (stereo not shown) [compound 1781]

Same assay, conditions: read-out: Stop Data c-Myc μM; concentration at which 50% of the DNA was arrested (arrested:full-length 1:1)

SMILES | IC50
Nc1c(F)cc2c(=O)c(C(=O)O)cn3c2c1Oc1c-3ccc2ccccc12 [compound 16] | 0.9 µM
CN(C)CCCCNc1c(F)cc2c(=O)c(C(=O)NCCCN3CCOCC3)cn3c2c1Oc1cc2ccccc2cc1-3 [compound 397] | 0.75 µM
CN(C)CCCCNc1c(F)cc2c(=O)c(C(=O)N3CCN(C)CC3)cn3c2c1Oc1cc2c(cc1-3)oc1ccccc12 [compound 164] | 1.75 µM
CN(C)c1cccc(CNc2c(F)cc3c(=O)c(C(=O)NCCC4CCCN4C)cn4c3c2Oc2cc3ccccc3cc2-4)c1 (stereo not shown) [compound 464] | 0.75 µM
CN1CCCC1CCNC(=O)c1cn2c3c(c(N4CCNC(c5cccnc5)C4)c(F)cc3c1=O)Oc1cc3ccccc3cc1-2 (stereo not shown) [compound 265] | 1.75 µM
N[C@@H]1CCN(C(=O)c2cn3c4c(c(NCCN5CCOCC5)c(F)cc4c2=O)Oc2c-3ccc3ccccc23)C1 [compound 84] | 2.5 µM
O=C(CCN1CCOCC1)N[C@@H]1CCN(c2c(F)cc3c(=O)c(C(=O)NCCN4CCCC4)cn4c3c2Oc2cc3c(cc2-4)oc2ccccc23)C1 [compound 404] | 0.75 µM
CN1CCN(CCCNc2ccc3c(=O)c(C(=O)NCCC4CCCN4C)cn4c3c2Oc2cc3ccccc3cc2-4)CC1 (stereo not shown) [compound 455] | 0.75 µM
O=C(NCCN1CCCC1)c1cn2c3cc4c(cc3oc3c(NCCCN5CCOCC5)c(F)cc(c1=O)c32)c(=O)c1ccccc14 [compound 418] | 0.75 µM
CN1CCCC1CCNC(=O)c1cn2c3c(c(N4CCC(C#N)(c5ccccc5)CC4)c(F)cc3c1=O)Oc1cc3ccccc3cc1-2 (stereo not shown) [compound 260] | 1.75 µM
CC1CCCC(C)N1CCCNC(=O)c1cn2c3c(c(N4CCC(N)C4)c(F)cc3c1=O)Oc1cc3ccccc3cc1-2 (stereo not shown) [compound 465] | 0.75 µM
N[C@@H]1CCN(c2c(F)cc3c(=O)c(C(=O)NCCCn4ccnc4)cn4c3c2Oc2c-4ccc3ccccc23)C1 [compound 157] | 1.75 µM
CCCCOCCCNc1c(F)cc2c(=O)c(C(=O)NCCC3CCCN3C)cn3c2c1Oc1cc2ccccc2cc1-3 (stereo not shown) [compound 1470] | 1.75 µM
CN(C)CCCCNc1c(F)cc2c(=O)c(C(=O)N3CC[C@H](NC(=O)OC(C)(C)C)C3)cn3c4cc5c(cc4oc1c23)c(=O)c1ccccc15 [compound 207] | 1.75 µM
N=C(N)NCC1CCCC(CNC(=O)c2cn3c4c(c(N5CCC(N)C5)c(F)cc4c2=O)Oc2cc4ccccc4cc2-3)C1 (stereo not shown) [compound 560] | 0.37 µM
CN1CCCC1CCNc1c(F)cc2c(=O)c(C(=O)NCCN3CCOCC3)cn3c2c1Oc1cc2ccccc2cc1-3 (stereo not shown) [compound 67] | 2.5 µM
NC1CCN(c2c(F)cc3c(=O)c(C(=O)NCc4nc5ccccc5[nH]4)cn4c3c2Oc2cc3ccccc3cc2-4)C1 (stereo not shown) [compound 196] | 1.75 µM
CC(O)CNc1c(F)cc2c(=O)c(C(=O)NCCC3CCCN3C)cn3c2c1Oc1cc2ccccc2cc1-3 (stereo not shown) [compound 283] | 1.75 µM
CN1CCCC1CCNC(=O)c1cn2c3c(c(N4CC[C@@H](NC(=O)CCN5CCOCC5)C4)c(F)cc3c1=O)Oc1cc3c(cc1-2)oc1ccccc13 (stereo partly shown) [compound 402] | 0.75 µM

More lines, now with the values ahead:

IC50 | SMILES
2.5 µM | CN1CCCC1CCNC(=O)c1cn2c3c(c(NC(=O)CCN4CCCC4)c(F)cc3c1=O)Oc1cc3ccccc3cc1-2 (stereo not shown) [compound 89]
0.9 µM | CN1CCN(CCCNc2c(F)cc3c(=O)c(C(=O)NCCC4CCCN4C)cn4c5cc6c(=O)c7ccccc7c(=O)c6cc5oc2c34)CC1 (stereo not shown) [compound 349]
0.375 µM | CN(C)CCCCNC(=O)c1cn2c3cc4oc5cc([N+](=O)[O-])ccc5[nH]c4cc3oc3c(NCCCN4CCOCC4)c(F)cc(c1=O)c32 [compound 555]
1.75 µM | CN(C)c1c(F)cc2c(=O)c(C(=O)O)cn3c4cc5oc6cc(N)ccc6[nH]c5cc4oc1c23 [compound 10]
1.75 µM | CN(C)CCCCNC(=O)c1cn2c3c(c(NCCCN4CCOCC4)c(F)cc3c1=O)Oc1cc3c(cc1-2)oc1ccccc13 [compound 145]
2.5 µM | CN1CCN(CCCNc2c(F)cc3c(=O)c(C(=O)N4CCC(N)C4)cn4c5cc6c(=O)c7ccccc7c(=O)c6cc5oc2c34)CC1 (stereo not shown) [compound 95]
0.375 µM | CN1CCCC1CCNC(=O)c1cn2c3c(c(NCCC4CCCN4C)c(F)cc3c1=O)Oc1c-2ccc2ccccc12 (stereo not shown) [compound 525]
1.75 µM | CN1CCCC1CCNC(=O)c1cn2c3c(c(NCCN4CCCC4)ccc3c1=O)Oc1cc3ccccc3cc1-2 (stereo not shown) [compound 266]
0.75 µM | CN1CCCC1CCNC(=O)c1cn2c3c(c(NCC4CCN(C(=O)OC(C)(C)C)C4)c(F)cc3c1=O)Oc1cc3ccccc3cc1-2 (stereo not shown) [compound 441]
1.75 µM | CC(C)(C)OC(=O)N[C@@H]1CCN(c2c(F)cc3c(=O)c(C(=O)NCCN4CCCC4)cn4c3c2Oc2cc3ccccc3cc2-4)C1 [compound 121]
0.75 µM | CN(C)CCCCNC(=O)c1cn2c3c(c(N4CCC(NC(=O)OC(C)(C)C)C4)ccc3c1=O)Oc1cc3ccccc3cc1-2 (stereo not shown) [compound 452]
1.75 µM | NC1CCN(c2c(F)cc3c(=O)c(C(=O)NCCN4CCCCC4)cn4c3c2Oc2cc3ccccc3cc2-4)C1 (stereo not shown) [compound 195]
2.5 µM | CN1CCCC1CCNC(=O)c1cn2c3c(c(NCCCN4CCOCC4)c(F)cc3c1=O)Oc1cc3ccccc3cc1-2 (stereo not shown) [compound 51]
0.75 µM | CN(C)CCCNc1c(F)cc2c(=O)c(C(=O)NCCC3CCCN3C)cn3c2c1Oc1cc2ccccc2cc1-3 (stereo not shown) [compound 437]
0.75 µM | CN1CCCC1CCNC(=O)c1cn2c3cc4oc5cc([N+](=O)[O-])ccc5[nH]c4cc3oc3c(NCCN4CCOCC4)c(F)cc(c1=O)c32 (stereo not shown) [compound 407]
1.75 µM | CN(C)CCCCNC(=O)c1cn2c3c(c(NCCCCN(C)C)ccc3c1=O)Oc1cc3ccccc3cc1-2 [compound 277]
0.75 µM | N[C@@H]1CCN(c2c(F)cc3c(=O)c(C(=O)NCCN4CCCC4)cn4c3c2Oc2c-4ccc3ccccc23)C1 [compound 401]
1.75 µM | O=C(c1cn2c3c(c(NCCN4CCCCC4)c(F)cc3c1=O)Oc1cc3ccccc3cc1-2)N1CCOCC1 [compound 115]
1.75 µM | CC1CCCCN1CCCNC(=O)c1cn2c3c(c(N4CCC(NC(=O)OC(C)(C)C)C4)c(F)cc3c1=O)Oc1cc3ccccc3cc1-2 (stereo not shown) [compound 185]
0.75 µM | CN1CCN(CCCNC(=O)c2cn3c4c(c(NCCN5CCCC5)c(F)cc4c2=O)Oc2c-3ccc3ccccc23)CC1 [compound 399]
2.5 µM | CN1CCN(CCCNc2c(F)cc3c(=O)c(C(=O)NCCN4CCOCC4)cn4c3c2Oc2cc3ccccc3cc2-4)CC1 [compound 60]
1.75 µM | COc1ccc2[nH]cc(CCNc3c(F)cc4c(=O)c(C(=O)NCCC5CCCN5C)cn5c4c3Oc3cc4ccccc4cc3-5)c2c1 (stereo not shown) [compound 290]

Reference: patent US7507727B2, “Substituted quinobenzoxazine analogs and methods of using thereof” (Cylene Pharmaceuticals, Inc., priority 2003, dated 2009)
